Experimental data reported in patent US20220233550A1, “PARP INHIBITOR PELLET PREPARATION AND PREPARATION PROCESS THEREFOR” (BEIGENE, LTD., priority 2019, published 2022).

What was measured:
[1] = sesquihydrate; cited from earlier work
PARP-1/2 = conditions: cited from earlier work
[2] = cited from earlier work
CYP = conditions: cited from earlier work
[3] = tested on: BRCA variant in vitro xenograft model; conditions: vs Olaparib; cited from earlier work
PARP = conditions: compared with Olaparib and other PARP inhibitors (such as Veliparib); cited from earlier work
[4] = Fluidity, judged from electron microscope images; format: physicochemical; conditions: electron microscope image, FIG. 1 / FIG. 2
Excerpt: FIG. 1 of the description is an electron microscope image of the drug substance Pamiparib, and since the drug substance BGB290 contains crystal water, is very easily agglomerated, and has a poor fluidity, which is not conducive to capsule filling, thereby affecting the industrialized mass production of a formulation. In addition, FIG. 2 of the description is an electron microscope image of the pellets of Example 1. It can be seen from the image that the pellets are round in shape, can be evenly spread under the field of view of an electron microscope, and has a good fluidity. It is sufficient to fulfil the filling of the capsule.

[5] = rodents; cited from earlier work
[6] = tested on: cell lines with BRCA1/2 mutations or other HR defects; conditions: cited from earlier work

Row | fluidity [4] | Compound | chemical stability [1] | PARP1/2 selectivity (PARP-1/2; compared with Olaparib and other PARP inhibitors (such as Veliparib)) | brain permeability [2] | CYP inhibitory activity (CYP) | activity relative to Olaparib [3] | DNA capture activity (PARP) | tolerance [5] | treatment window [5] | inhibition of proliferation [6] | selectivity for PARP-1/2 (PARP-1/2; free compound of WO 2013/097225A1)
1 | poor fluidity | C[C@]12CCCN1CC1=NNC(=O)c3cc(F)cc4[nH]c2c1c34 [Pamiparib, (R)-2-fluoro-10a-methyl-7,8,9,10,10a,11-hexahydro-5,6,7a,11-tetraazacyclohepta[def]cyclopenta[a]fluoren-4(5H)-one sesquihydrate] | excellent chemical stability | better PARP1/2 selectivity | significant brain permeability | no CYP inhibitory activity | about 16 times | stronger DNA capture activity | good tolerance | about 10 folds | – | –
2 | – | C[C@]12CCCN1CC1=NNC(=O)c3cc(F)cc4[nH]c2c1c34 [drawing 1, (R)-2-fluoro-10a-methyl-7,8,9,10,10a,11-hexahydro-5,6,7a,11-tetraazacyclohepta[def]cyclopenta[a]fluoren-4(5H)-one] | – | – | – | – | – | – | – | – | can effectively inhibit the proliferation | high selectivity for PARP-1/2
